From ChEMBL document CHEMBL1221174, “Evolution of glutamate interactions during binding to a glutamate receptor” (Nat Chem Biol, 2005)
Active and inactive are the calls of the source. The calls are words filed in the database; no cut-off is given here.

Columns and labels:
[1] = Binding affinity to Glutamate receptor 2 E705D mutant S1S2 ligand binding domain assessed as induction protein vibrational state by time resolved FTIR difference spectra method
[2] = Binding affinity to Glutamate receptor 2 Y450F mutant S1S2 ligand binding domain assessed as induction protein vibrational state by time resolved FTIR difference spectra method

Activity [1]: Active | Activity [2]: Active
Compound: N[C@@H](CCC(=O)O)C(=O)O
